The values that follow come from publication PMC7616682 (Journal of biological inorganic chemistry : JBIC : a …, 2024).

In one series the test system is S. aureus NTCC 12973. Nature of the series: MIC broth microdilution assay. It is filed as cell-based, Staphylococcus aureus. Particulars: 24 h, read-out: MIC S. aureus (Gram positive). The method, then:
(§1) Antibacterial activity assay […]
(§2) MIC broth microdilution assay
(§3) 3 × 125 mL Erlenmeyer flasks, each filled with 12.5 mL MHBII, were inoculated with three different colonies of S. aureus NTCC 12973. 3 × 125 mL Erlenmeyer flasks, each filled with 12.5 mL BHI broth, were inoculated with three different colonies of E. faecium ATCC 19434. The cultures were incubated at 37 °C with shaking at 180 rpm for 16 h.
(§4) OD600 of ~2.5. The suspensions of S. aureus cultures were diluted 100-fold with MHBII while the E. faecium cultures were diluted 4-fold. The resultant suspensions were incubated for a further 3 h at 37 °C with shaking. […]
(§5) after 3 h. Stock solutions of the title compounds were prepared in the requisite broth from 100 mM stocks in DMSO with the exception of carbenicillin, which was from a 100 mM stock in water and vancomycin from a 10 mM stock in DMSO. 15 × 96 well plates were primed with concentration gradients of the analytes and carbenicillin as shown in Figure S60 for S. aureus. 15 × 96 well plates were primed with the concentration […]
(§6) μL per well of the relevant bacterial culture in the requisite broth to 100 μL per well.
Plates were then incubated at 37 °C for 24 h before reading OD600 on a BMG Clariostar […]
Figure S50: Dose response profiles of the title compounds against S. aureus.
(§7) (1 picture or pasted object on this page, not shown here)

Series [1] deals with BEASB2, HaCat, RPE1, HCT116 and HeLa cell lines. Nature of the series: Cell viability, summary over all cell lines studied. Particulars: summary of Table 3, 48 h, read-out: IC50 values, range over all cell lines studied. It is filed as cell-based, human. As to the method:
(§8) To determine the relative viability, after incubation cells were fixed and stained with DAPI and the number of nuclei per well determined using a CeligoTM Image Cytometer (Figure S52 to S60). […] page 43: Cell viability studies Compound cytotoxicity was tested simultaneously on five representative cell lines […] All cells were cultured in DMEM Glutamax without pyruvate with 10% fetal bovine serum and 1% penicillin/streptomycin (Gibco). Cells were incubated with the compound for 24 or 48 h […] The tested concentration range for each compound was […] The required […] Greiner CELLSTAR® microplates) using the Echo 550 Acoustic Liquid Handler and wells were back-filled with DMSO when required to keep a final DMSO concentration […] Next, 50 μL of cell solution was added to the compound-containing wells using the Integra® […] Bulk dispenser. Cell solutions were prepared to get 5000 […] cells per well for hTERT RPE-1, and 5000 (24 h)/2500 (48 h) cells per well for BEAS- […] After incubation, cells were fixed with 4% PFA (Merck, […]), permeabilized with […] DAPI (Merck, 10236276001). Viable cells were counted using 377 nm excitation and 447 nm emission filters on the CeligoTM Image Cytometer. The number of nuclei per well was determined using the Direct Cell Count analysis from the CeligoPro Sofware […] All conditions were performed in triplicate. Staurosporine (Cambridge Bioscience, s7600) was used as a positive control and DMSO only as a negative control. The percentage of cell viability was normalized to the DMSO-only control and […] logistic curve with the scipy.optimize.curve_fit function. S43

In series [2] the test system is HeLa (cervical cancer) cells. Put plainly: Cell viability (DAPI nuclei count). Particulars: 48 h. It is filed as cell-based, human. The method, then: as §8
The test system of series [3] is HCT116 (colorectal cancer) cells. Put plainly: Cell viability (DAPI nuclei count). It is filed as cell-based, human. As to the method: as §8
For series [4], the system named is RPE1 (retinal pigment epithelial cells). Put plainly: Cell viability (DAPI nuclei count). It is filed as cell-based, human. As to the method:
as §8

Series [5] relates to HaCat (non-cancer skin) cells. Put plainly: Cell viability (DAPI nuclei count). It is filed as cell-based, human. The settings on record: 48 h. As to the method:
as §8

Another series concerns the target streptavidin (Streptomyces avidinii, UniProt P22629). Nature of the series: Isothermal titration calorimetry (ITC) with streptavidin. It is filed as binding. The settings on record: 25 °C, 10 mM HEPES + 2% DMSO; for Kd: read-out: dissociation constant (Kd) to streptavidin. The method, then:
Isothermal titration calorimetry
Streptavidin (20 µM in 10 mM HEPES plus 2% DMSO) was titrated stepwise with 2 uL injections of the compound (200 µM in 10 mM HEPES + 2% DMSO) at 25 °C, using a Malvern MicroCal PEAQ-ITC. Raw thermograms (top panels) and the binding isotherm from the integrated thermogram (bottom panels) were fit using the One Set of Sites model in the MicroCal PEAQ-ITC analysis software. Circles indicate the integrated heat, and the curve represents the best fit.
Figure S46: Isothermal titration calorimetry measurements of 5.
as §7

Series [6] has as its system Acinetobacter baumanii ATCC 17978. Nature of the series: Rapid screen broth microdilution assay. It is filed as cell-based, Acinetobacter baumannii. The settings on record: rapid screen without replicates, 24 h, read-out: MIC A. baumannii (Gram negative). As to the method:
(§9) Antibacterial activity assay
(§10) Rapid screen broth microdilution assay
(§11) 5 × 125 mL Erlenmeyer flasks, each filled with 12.5 mL Mueller Hinton broth II (MHBII), were inoculated with Klebsiella pneumoniae ATCC 13883, Acinetobacter baumanii ATCC 17978, Psuedomonas aeruginosa ATCC BAA-47, Staphylococcus aureus […]
(§12) with 12.5 mL BHI broth was inoculated with Enterococcus faecium ATCC 19434. The cultures were incubated at 37 °C with shaking at 180 rpm for 16 h. The suspensions were diluted 100-fold with the requisite broth (E. faecium: 4-fold) and the resultant suspensions incubated for a further 3 h at 37 °C with shaking. […]
(§13) of 0.8–1.2 after 3 h. Stock solutions of the title compounds were prepared in the requisite broth from 100 mM stocks in DMSO with the exceptions of carbenicillin, which was from a 100 mM stock in water and ciprofloxacin from a 10 mM stock in DMSO.
(§14) 6 × 96 well plates were primed with a concentration gradient of the analytes from 200 to 3.13 µM, carbenicillin from 200 to 3.13 µM and ciprofloxacin from 10 to 0.16 µM. The cells were diluted 100-fold to an OD600 of 0.01. All plates were then inoculated with 50 μL per well bacterial culture in the requisite broth to 100 μL per well. Plates were then incubated at 37 °C for 24 h before reading OD600 on a BMG Clariostar platereader. […]

Another series has as its system E. faecium ATCC 19434. Nature of the series: MIC broth microdilution assay. It is filed as cell-based, Enterococcus faecium. The settings on record: 24 h, read-out: MIC E. faecium (Gram positive). The method, then: as §1, §2, §3, §4, §5, §6
In series [7] the test system is Psuedomonas aeruginosa ATCC BAA-47. Nature of the series: Rapid screen broth microdilution assay. It is filed as cell-based, Pseudomonas aeruginosa. Particulars: rapid screen without replicates, 24 h, read-out: MIC P. aeruginosa (Gram negative). The method, then:
as §9, §10, §11, §12, §13, §14

For series [8], the system named is Escherichia coli K12 ATCC 10798. Put plainly: Rapid screen broth microdilution assay. It is filed as cell-based. The settings on record: rapid screen without replicates, 24 h, read-out: MIC E. coli (Gram negative). The method, then: as §9, §10, §11, §12, §13, §14
Series [9] has as its system Klebsiella pneumoniae ATCC 13883. Nature of the series: Rapid screen broth microdilution assay. It is filed as cell-based. Particulars: rapid screen without replicates, 24 h, read-out: MIC K. pnuemoniae (Gram negative). The method, then:
as §9, §10, §11, §12, §13, §14

Series [10] has as its system BEAS2B (non-cancer lung) cells. Put plainly: Cell viability (DAPI nuclei count). It is filed as cell-based, human. Particulars: 48 h. The method, then: as §8
Series [11] is described as follows: LogP by shake-flask method (n-octanol/phosphate buffer). The method, then:
using the "shake-flask" method.[6],[7] In short, phosphate buffer (50 mM, pH 7.4) was saturated with n-octanol by shaking a 1:1 mixture of both solution on a laboratory shaker for 72 h, after which the phases were separated. Stock solutions of each complex were then prepared in dimethylsulfoxide at a concentration of 10 mM. […]
solution with a concentration of 100 µM. From this solution, 1000 µL were transferred into an Eppendorf tube and mixed with 1000 µL of n-octanol. After shaking for 15 min and centrifugation (5 min, 6000 rpm), the two phases were carefully separated, and the contact layer discarded. Then, the absorbance of each phase was recorded with an Agilent 8453 UV/Vis spectrometer.
2 mL solution with a concentration of 100 µM. From this solution, 1000 µL were transferred into an Eppendorf tube and mixed with 1000 µL phosphate buffer. After shaking for 15 min and centrifugation (5 min, 6000 rpm), the phases were carefully separated, and the contact layer discarded. Then, the absorbance of each phase was recorded with an Agilent 8453 UV/Vis spectrometer.

The target in series [12] is T1, avidin (Gallus gallus, UniProt P02701).
T1 construct: purchased SIGMA-ALDRICH A9275
T1 sequence (P02701 25-152): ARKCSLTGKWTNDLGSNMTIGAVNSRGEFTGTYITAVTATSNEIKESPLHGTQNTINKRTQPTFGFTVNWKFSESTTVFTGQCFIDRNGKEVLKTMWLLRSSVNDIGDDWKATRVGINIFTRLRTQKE
Put plainly: HABA/avidin assay. It is filed as binding. Particulars: titration of HABA/avidin mixture, absorbance at 500 nm. As to the method: properties towards avidin using the HABA assay.[8] A mixture of avidin (6.8 μM, SIGMA-ALDRICH: A9275) and 4'-hydroxyazobenzene-2-carboxylic acid (HABA, 0.3 mM, SIGMA-ALDRICH: H5126) was dissolved in 50 mM sodium phosphate buffer (20 mL, pH 7.4) and allowed to equilibrate for 24 h at 4 °C. Stock solutions of each compound were prepared in dimethyl sulfoxide at a concentration of 1.1 mM. The […]
to the prepared avidin/HABA mixture (1 mL) at room temperature at 5–10 min intervals […]
absorbance then recorded with an Agilent 8453 UV/Vis spectrometer. The formation of the adduct was indicated by a decrease in the absorbance at 500 nm due to the displacement of HABA from the avidin. By plotting -ΔA500 nm vs. the molar concentration ratio c(compound):c(avidin), the binding stoichiometry of the compound to avidin was determined.

Series [13] concerns the target T1, avidin. The settings on record: cited from earlier work.
Setting [14] is: shake-flask method, n-octanol/phosphate buffer 50 mM pH 7.4.

Values after ≈ are worked out from the molar mass of the structure shown. Read-outs that look alike come from different tables or passages of the source.

Chain of streptavidin (P22629 25-183, species assumed): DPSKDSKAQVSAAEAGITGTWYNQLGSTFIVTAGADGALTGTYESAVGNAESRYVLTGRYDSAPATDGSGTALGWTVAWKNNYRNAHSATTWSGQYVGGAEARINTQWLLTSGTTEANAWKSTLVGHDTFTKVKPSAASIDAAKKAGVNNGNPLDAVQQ

Take “[Ir(triazolatoC6H5,biotin)(ppy)(terpy]PF6 [Compound 18]”: the minimum inhibitory concentration (MIC) in the series on S. aureus NTCC 12973 (three colonies) was 100 µM; in [6] it was >200 µM; with E. faecium ATCC 19434 (three colonies), 100 µM; in [7], >200 µM; in series [8] it was >200 µM; in series [9], >200 µM. The IC50 in series [1] was > 35 µM; in series [2], > 50 µM; in [3] (48 h), > 50 µM; in series [4] (48 h), 39.7 µM; in series [5], > 50 µM. The Kd at streptavidin came out at 0.045 µM.
On to `F[P-](F)(F)(F)(F)F.O=C1N[C@H]2[C@H](CS[C@H]2CCCCC(=O)c2n[n]([Pt+][c]3cccc(-c4cccc(-c5ccccn5)n4)n3)nc2-c2ccccc2)N1` [Compound 16, [Pt(triazolatoC6H5,biotin)(terpy)]PF6], for which the MIC (in the series on S. aureus NTCC 12973 (three colonies); in series [6]; in the series on E. faecium ATCC 19434 (three colonies); in series [7]; in series [8]; in series [9]) was >200 µM each time. In addition, the IC50 in series [2] stood at 13.3 µM; in series [10], 8.3 µM; in [3] (48 h), 6.8 µM; in [4] (48 h), 5.2 µM; in [5], 14.1 µM. For the same compound, at streptavidin, the Kd is 0.13 µM. Moreover, the LogP in series [11] (setting [14]) is -0.78.
As to `COC(=O)c1n[n]([Pt+])nc1C(=O)OC.F[P-](F)(F)(F)(F)F.c1ccc(-c2cccc(-c3ccccn3)n2)nc1` [Compound 15], the MIC (in the series on S. aureus NTCC 12973 (three colonies); in [6]; with E. faecium ATCC 19434 (three colonies); in series [7]; in series [8]; in series [9]) was >200 µM throughout. Also, the 50% inhibitory concentration (IC50) in series [2] worked out at 15.9 µM; in series [3] (48 h) it was 6 µM; in series [4] (48 h), 4.9 µM; in [5], 15.4 µM. For the same compound, the “avidin binding in HABA assay (result in words)” value at avidin [12] is “non-specific protein binding”. Moreover, on streptavidin, the “dissociation constant (Kd) to streptavidin” value was “did not bind to streptavidin”. For the same compound, the LogP in series [11] (pH 7.4) is reported as -1.80.
On to `O=C(O)c1ccccc1N=Nc1ccc(O)cc1` [HABA, 4'-hydroxyazobenzene-2-carboxylic acid], for which, at avidin [13], the Kd was 6 µM.
With `O=C(C#Cc1ccccc1)CCCC[C@@H]1SC[C@@H]2NC(=O)N[C@@H]21` (stereo in doubt) [Compound 5, 7-[(3aS,4S,6aR)-2-oxohexahydro-1H-thieno-[3,4-d]imidazol-4-yl]-1-phenyl-1-heptyn-3-one], the MIC was > 200 µM with S. aureus NTCC 12973 (Staphylococcus aureus, NTCC12973, three colonies); > 200 µM in [6] (Acinetobacter baumannii, ATCC17978); 200 µM (≈ 65.7 µg/mL) with E. faecium ATCC 19434 (Enterococcus faecium, ATCC19434, three colonies); > 200 µM in [7] (Pseudomonas aeruginosa, ATCCBAA47); > 200 µM in series [8] (Escherichia coli, ATCC10798); > 200 µM in series [9] (Klebsiella pneumoniae, ATCC13883). The IC50 in [1] (Homo sapiens) was 2 to 4 µM; in [2] (Homo sapiens, HeLa) it was 3.3 µM; in [10] (Homo sapiens, BEAS-2B), 3.6 µM; in series [3] (Homo sapiens, HCT-116, 48 h), 4 µM; in [4] (Homo sapiens, RPE-1, 48 h), 2.4 µM; in series [5] (Homo sapiens, HaCaT) it was 3.3 µM. Moreover, at streptavidin, the Kd was < 0.001 µM. Moreover, the LogP result in series [11] (setting [14]) is on record as “highly lipophilic^a”.
